In patent US20140371244A1, “METHOD FOR TREATING PROSTATE CANCER BY USE OF PHARMACEUTICAL COMPOSITION CONTAINING A3 ADENOSINE RECEPTOR AGONIST” (priority 2009, published 2014):

Assays:
[1] = system: iNOS (inducible nitric oxide synthase); assay: NO production inhibitory activity (iNOS assay) in LPS-stimulated RAW 264.7 cells; format: cell-based, mouse; conditions: LPS 1 μg/ml; for IC50: RAW 264.7 cells, 20 hours, read-out: IC50 of NO production inhibition
Procedure: A test was carried out to examine the inhibitory activity of the inhibitory activity of the inventive composition on the enzyme iNOS (inducible nitric oxide synthase) whose expression increases when inflammatory reactions and traumas exist.
Specifically, RAW 264.7 cells (5×10^5 cells/ml) were added to a 24-well plate with 10% FBS-containing DMEM medium in an amount of 1 ml per well and cultured for 24 hours. […] After 30 minutes, 1 μg/ml of LPS was added to the cells which were then cultured in a 5% CO2 incubator at 37° C. for 20 hours (test groups). As a blank, RAW cells cultured without addition of LPS and the inventive composition were used, and as a control group, RAW cells cultured with addition of only LPS were used.
100 μl of the supernatant of each well was taken and allowed to react with 90 μl of each of sulfanilamide solution and N-(1-naphtyl)-ethylenediamine solution. Then, each reaction product was measured for absorbance at 540 nm to determine the amount of nitrate or nitrite produced in the culture medium, and the results of the measurement are shown in FIG. 1.
A standard curve was potted using NaNO2 solution, and the NO production inhibitory activity of each of the samples was evaluated by calculating NaNO2 concentration in each test group relative to the control group using the following equation 1 based on the measured absorbance and comparing the calculated NaNO2 concentration with that in the group treated with LPS alone. Inhibition rate (%) was calculated as nitrate concentration using the following equation, and then the IC50 value of the composition was calculated.

[2] = system: LNCaP (androgen receptor dependent); assay: SRB assay, growth of LNCaP cells; format: cell-based, human; conditions: for IC50: SRB, 3 days
Procedure: (§1) In order to examine the inhibitory effects on the growth of the human prostate cancer cells LNCaP (androgen receptor dependent) and PC-3 (androgen receptor independent), a sulforhodamine B (SRB) assay was performed.
(§2) 10 μL of a solution of thio-Cl-IB-MECA in 10% dimethylsulfoxide (DMSO) was loaded in each well of a 96-well plate in triplicate at concentrations of 50, 25, 12.5 and 6.25 μM, thus making a test plate. Cells were diluted to a density of 6×10^4 cells/ml with 10% FBS-containing RPMI 1640 medium supplemented with antibiotics-antimycotics, and 190 μL of the cell suspension was added to each well so as to reach a total volume of 200 μL and was cultured in a 5% CO2 incubator at 37° C. for 3 days. At the same time, 190 μL of the same cell suspension was loaded into each of 16 wells or more of a fresh 96-well plate containing no sample (thio-Cl-IB-MECA) and was cultured in a 5% CO2 incubator at 37° C. for 30 minutes, thereby determining reference date. After the culture, 50 μL of 50% trichloroacetic acid (TCA) was added to each well, and the cells were fixed by culture at 4° C. for 1 hour. Then, the well plate was washed five times with tap water and dried. 100 μL of 1% acetic acid solution containing […] sulforhodamine B (SRB) was added to each well to stain the cells, and the well plate was allowed to stand at room temperature for 1 hour. After the well plate has been washed five times with 1% acetic acid and sufficiently dried, 200 μL of 100 mM Tris-base was added to each well, and the bound staining liquid was dissolved and sufficiently shaken in a shaker. Then, the absorbance at 515 nm was measured using an ELISA microplate reader. Based on the measured absorbance, the cell viability of the test group relative to the control group was calculated using the following equation 2, and based on the viability at each concentration, the IC50 value of the sample was calculated using TableCurve program: […]

[3] = system: PC-3 (androgen receptor independent); assay: SRB assay, growth of PC-3 cells; format: cell-based, human; conditions: for IC50: SRB, 3 days
Procedure: as §1, §2

[4] = system: prostate cancer cell line PC-3; assay: Anticancer activity in PC-3 tumor-transplanted nude mice; format: in vivo; conditions: for tumor production inhibitory activity relative to the control group: 2 mg/kg orally every day for 35 days
Procedure: Based on the anticancer activity of thio-Cl-IB-MECA against prostate cancer cells, proven by the in vitro test, the anticancer activity of thio-Cl-IB-MECA was measured by an animal test. The prostate cancer cell line PC-3 was transplanted subcutaneously into nude mice, and when the tumor size reached 150-200 mm^3 after 8 days, the drug thio-Cl-IB-MECA (0.02, 0.2 and 2 mg/kg), thio-IB-MECA (2 mg/kg) or IB-MECA (2 mg/kg) was administered orally every day for 35 days. The tumor size was measured at intervals of 3-5 days. The tumor volume was measured using the following equation 3.
Tumor volume=abc×π/6 [Equation 3]
wherein a represents the longer diameter of the tumor, b represents the shorter diameter of the tumor, and c represents the height of the tumor.

LNCaP cells = assay: Cell cycle analysis (FACS) in LNCaP cells; format: cell-based, human; conditions: 40, 20 and 10 μM, 48 hours
Procedure: Cells were treated with 40, 20 and 10 μM of thio-Cl-IB-MECA and cultured for 48 hours, and the cell cycle of the cells was analyzed by flow cytometer analysis (FACS). Specifically, cells were diluted with 10% FBS-containing medium to a density of 1.0×10^6 cells per 100 mm culture dish and cultured under the conditions of 37° C. and 5% CO2 for 24 hours, followed by washing twice with PBS. Thio-Cl-IB-MECA was diluted in 10% FBS-containing medium at required concentration, and then 10 ml of the culture medium prepared in the 100 mm culture dish was added thereto and cultured for a given time. The non-adherent cells and adherent cells in the cell medium were collected and washed twice with PBS, after which 500 μL of 100% cold methanol was added thereto and the cells were fixed at 4° C. The cells were washed twice with PBS and allowed to stand in RNase A-containing solution for 30 minutes, after which the cells were stained with propidium iodide (PI) buffer for 5 minutes. After removal of the PI buffer, the cells were transferred into a polystyrene round-bottom tube, and cell cycle analysis was performed by FACScalibur® flow cytometry.

SMILES	IC50 [1] [µM]	cell viability in LNCaP ([2]; 50 μM (highest concentration)) [%]	IC50 [2] [µM]	cell viability in PC-3 ([3]; 50 μM (highest concentration)) [%]	IC50 [3] [µM]	tumor production inhibitory activity relative to the control group [4]	production of NO ([1]; 5, 10 and 20 μM)	G1 phase of cell cycle, LNCaP (LNCaP cells)	tumor production as a function of dose ([4]; 0.02, 0.2 and 2 mg/kg orally every day for 35 days)
CNC(=O)[C@H]1O[C@@H](n2cnc3c(NCc4cccc(I)c4)ncnc32)[C@H](O)[C@@H]1O [IB-MECA]	65.7	54	54.2	63	97.1	about 45.9%	–	–	–
CNC(=O)[C@H]1S[C@@H](n2cnc3c(NCc4cccc(I)c4)nc(Cl)nc32)[C@H](O)[C@@H]1O [thio-Cl-IB-MECA, 2-chloro-N^6-(3-iodobenzyl)-4′-thioadenosine-5′-N-methyluronamide]	16.2	–	18.6	–	20.4	82.6%	inhibited in a concentration-dependent manner	an increase in the G1 phase appeared	inhibited tumor production in a concentration-dependent manner
